Publication PMC12212144, “The VanS sensor histidine kinase from type-B vancomycin-resistant enterococci recognizes vancomycin directly” (The Journal of Biological Chemistry, 2025)

Experiments:
[1] = biological target: full-length VanSB (in nanodiscs) (Enterococcus faecalis, UniProt Q47745); assay: biochemical
[2] = biological target: T1, single-copy VanSB periplasmic sensor domain (Enterococcus faecalis, UniProt Q47745); assay: biochemical
[3] = biological target: T2, tandem VanSB periplasmic sensor domain (Enterococcus faecalis, UniProt Q47745); assay: biochemical
T2 sequence (Q47745 31-132): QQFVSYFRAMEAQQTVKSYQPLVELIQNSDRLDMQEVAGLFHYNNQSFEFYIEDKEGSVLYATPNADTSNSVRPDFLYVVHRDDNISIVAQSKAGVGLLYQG

[4] = biological target: T1, single-copy VanSB periplasmic sensor domain; assay: fluorescence anisotropy; format: binding; set-up: periplasmic sensor domain Q31-G132, single copy; expressed in E. coli as TEV-cleavable 6xHis-MBP fusion, tag removed; settings: labelled compound, 100 nM; 20 mM Tris pH 7.5, 100 mM NaCl, 0.01% Triton X-100, room temperature
[5] = biological target: T2, tandem VanSB periplasmic sensor domain; assay: fluorescence anisotropy; format: binding; set-up: two copies of periplasmic domain Q31-G132 in one polypeptide joined by GSGGS linker; expressed in E. coli as TEV-cleavable 6xHis-MBP fusion, tag removed; settings: labelled compound, 100 nM; 20 mM Tris pH 7.5, 100 mM NaCl, 0.01% Triton X-100, room temperature
[6] = biological target: T3, cVanSB (cytosolic domain of VanSB) (Enterococcus faecalis, UniProt Q47745); assay: autophosphorylation with ATPγS, anti-thiophosphohistidine (PNBM) Western blot; format: biochemical; settings: 1 mM ATPγS, 10 mM MgCl2, pH 7.4; not affected by vancomycin
T3 construct: cytosolic domain M159-L447, C-terminal His6 (pETCH), expressed in E. coli
T3 sequence (Q47745 159-447): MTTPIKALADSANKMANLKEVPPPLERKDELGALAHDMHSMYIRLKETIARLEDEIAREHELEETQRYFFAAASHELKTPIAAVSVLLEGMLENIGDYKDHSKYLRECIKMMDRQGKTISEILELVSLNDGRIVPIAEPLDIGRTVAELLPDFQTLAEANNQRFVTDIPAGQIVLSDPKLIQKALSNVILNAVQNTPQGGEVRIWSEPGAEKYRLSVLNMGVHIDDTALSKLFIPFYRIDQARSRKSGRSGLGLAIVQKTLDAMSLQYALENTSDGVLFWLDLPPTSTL

T1 sequence (Q47745 31-132): as the sequence (Q47745 31-132) above
Chain of full-length VanSB (in nanodiscs) (Q47745 whole entry, the tested form may be a part): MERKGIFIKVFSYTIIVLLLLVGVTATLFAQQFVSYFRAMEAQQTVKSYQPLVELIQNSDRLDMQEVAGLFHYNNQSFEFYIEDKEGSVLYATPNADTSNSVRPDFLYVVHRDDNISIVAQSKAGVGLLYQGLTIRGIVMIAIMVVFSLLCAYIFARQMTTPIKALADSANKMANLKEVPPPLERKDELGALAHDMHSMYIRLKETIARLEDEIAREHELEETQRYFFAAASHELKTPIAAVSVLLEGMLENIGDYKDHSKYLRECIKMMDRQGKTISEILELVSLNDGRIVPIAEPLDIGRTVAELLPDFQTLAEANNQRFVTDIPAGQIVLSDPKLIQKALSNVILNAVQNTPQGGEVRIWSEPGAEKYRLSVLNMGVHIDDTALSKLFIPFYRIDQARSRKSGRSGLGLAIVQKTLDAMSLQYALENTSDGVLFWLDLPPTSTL

CN[C@H](CC(C)C)C(=O)N[C@H]1C(=O)N[C@@H](CC(N)=O)C(=O)N[C@H]2C(=O)N[C@H]3C(=O)N[C@H](C(=O)N[C@H](C(=O)O)c4cc(O)cc(O)c4-c4cc3ccc4O)[C@H](O)c3ccc(c(Cl)c3)Oc3cc2cc(c3O[C@@H]2O[C@H](CO)[C@@H](O)[C@H](O)[C@H]2O[C@H]2C[C@](C)(N)[C@H](O)[C@H](C)O2)Oc2ccc(cc2Cl)[C@H]1O [vancomycin]
EC50 [1]: 43 ± 12.5 µM | Kd [2]: 20.7 µM | Kd [3]: 11 µM

CN[C@H](CC(C)C)C(=O)N[C@H]1C(=O)N[C@@H](CC(N)=O)C(=O)N[C@H]2C(=O)N[C@H]3C(=O)N[C@H](C(=O)N[C@H](C(=O)O)c4cc(O)cc(O)c4-c4cc3ccc4O)[C@H](O)c3ccc(c(Cl)c3)Oc3cc2cc(c3O[C@@H]2O[C@H](CO)[C@@H](O)[C@H](O)[C@H]2O[C@H]2C[C@](C)(NC(=O)CCc3ccc4n3[B-](F)(F)[N+]3=C(C)C=C(C)C3=C4)[C@H](O)[C@H](C)O2)Oc2ccc(cc2Cl)[C@H]1O [BODIPY-FL-vancomycin]
Kd [4]: 20.3 µM | Kd [5]: 10.7 µM

Nc1ncnc2c1ncn2[C@@H]1O[C@H](COP(=O)(O)OP(=O)(O)OP(O)(O)=S)[C@@H](O)[C@H]1O [ATPγS]
autophosphorylation with ATPγS, anti-thiophosphohistidine (PNBM) Western blot [6]: autophosphorylation time course for full-length VanSB (reconstituted in nanodiscs) and its cytosolic domain

AF488-vancomycin
Kd [5]: 11 µM
